Values of other authors, collected in PMC5732038 (ACS chemical biology, 2017).

System: methicillin resistant Staphylococcus aureus (MRSA)
Conditions: several Gram-positive bacteria including MRSA

Substance: Sublancin
- antimicrobial activity: antimicrobial activity
